Measurements: patent US10513523B2, “Imidazopyrazines and pyrazolopyrimidines and their use as AMPA receptor modulators” (Janssen Pharmaceutica NV, priority 2015, dated 2019)

Tests used:
[1] = target: GluA1o-γ8 (GRIA1o-CACNG8 fusion construct; TARP γ8 dependent AMPA receptor) (Homo sapiens (Human), UniProt P42261+Q8WXS5); assay: Calcium flux assay (FLIPR), inhibition of glutamate response of GluA1o-γ8 channel; type: cell-based; conditions: HEK293 cells stably expressing GRIA1o-CACNG8 fusion; 15 μM glutamate; pIC50 = negative log of IC50 in molar; read-out: GluR1-γ8 (pIC50) (converted)
Sequence of GluA1o-γ8 (GRIA1o-CACNG8 fusion construct; TARP γ8 dependent AMPA receptor) (P42261 other isoform, or with tags, fused parts or gaps): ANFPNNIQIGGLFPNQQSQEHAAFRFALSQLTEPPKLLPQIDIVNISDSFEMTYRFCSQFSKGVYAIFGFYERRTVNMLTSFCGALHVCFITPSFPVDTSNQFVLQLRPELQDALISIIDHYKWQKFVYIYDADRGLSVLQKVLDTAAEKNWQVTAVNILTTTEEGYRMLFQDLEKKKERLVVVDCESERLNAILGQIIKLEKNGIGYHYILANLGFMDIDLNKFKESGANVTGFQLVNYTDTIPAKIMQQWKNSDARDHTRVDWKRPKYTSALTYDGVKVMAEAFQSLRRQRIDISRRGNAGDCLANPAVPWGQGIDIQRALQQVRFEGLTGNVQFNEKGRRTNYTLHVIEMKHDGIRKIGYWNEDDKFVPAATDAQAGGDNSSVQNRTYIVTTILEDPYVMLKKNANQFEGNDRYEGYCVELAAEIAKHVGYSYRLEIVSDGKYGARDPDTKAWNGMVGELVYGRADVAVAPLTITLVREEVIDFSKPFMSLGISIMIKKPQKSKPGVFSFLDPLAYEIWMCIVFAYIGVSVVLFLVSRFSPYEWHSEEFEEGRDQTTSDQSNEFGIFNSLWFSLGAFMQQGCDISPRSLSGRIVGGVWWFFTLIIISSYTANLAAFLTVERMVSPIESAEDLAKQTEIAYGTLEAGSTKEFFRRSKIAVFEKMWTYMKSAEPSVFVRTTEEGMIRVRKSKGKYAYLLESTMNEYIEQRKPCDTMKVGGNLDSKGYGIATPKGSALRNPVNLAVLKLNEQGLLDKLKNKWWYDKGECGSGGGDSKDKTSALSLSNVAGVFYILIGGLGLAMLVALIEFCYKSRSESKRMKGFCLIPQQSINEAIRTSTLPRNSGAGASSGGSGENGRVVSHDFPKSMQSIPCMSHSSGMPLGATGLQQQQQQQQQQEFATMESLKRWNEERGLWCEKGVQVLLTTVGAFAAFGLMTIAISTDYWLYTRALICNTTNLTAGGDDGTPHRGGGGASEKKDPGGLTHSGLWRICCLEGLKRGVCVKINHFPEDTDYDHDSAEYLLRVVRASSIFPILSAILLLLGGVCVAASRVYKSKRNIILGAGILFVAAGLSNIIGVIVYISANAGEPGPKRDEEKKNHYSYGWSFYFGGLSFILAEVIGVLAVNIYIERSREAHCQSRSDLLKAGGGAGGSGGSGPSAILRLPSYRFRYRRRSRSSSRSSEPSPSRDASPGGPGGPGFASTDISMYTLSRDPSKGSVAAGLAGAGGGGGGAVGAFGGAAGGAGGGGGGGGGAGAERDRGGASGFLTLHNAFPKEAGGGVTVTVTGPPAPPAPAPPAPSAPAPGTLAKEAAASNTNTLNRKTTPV
Summary of the method: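 Potency is the midpoint of a four-parameter logistic fit to control-normalized FLIPR calcium responses elicited by 15 μM glutamate. Stable HEK293 cells carried a fused GluA1o-γ8 construct and were preincubated with compound and calcium dye in pH 7.4 HEPES buffer.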

[2] = system: endogenous γ8-containing AMPA receptor currents; assay: Whole-cell electrophysiology on acutely-dissociated mouse hippocampal neurons; type: cell-based; conditions: 10 mM glutamate, 500 ms, held at -60 mV
Method: The effects of selected compounds upon endogenous γ 8-containing AMPA receptor currents was evaluated using whole-cell electrophysiology on acutely-dissociated mouse hippocampal neurons. Hippocampus was chosen for this assay, since CACNG8 (the protein encoded by this gene is a type I transmembrane AMPA receptor regulatory protein i.e., TARP) is preferentially enriched in this brain region (Tomita et al. (2003). “Functional studies and distribution define a family of transmembrane AMPA receptor regulatory proteins.” J Cell Biol 161(4): 805-816.2003).
Hippocampi were dissected from C57black6 mice at 4-12 weeks postnatal, following the protocol described by Brewer (Brewer, G. J. (1997). “Isolation and culture of adult rat hippocampal neurons.” Journal of Neuroscience Methods 71(2): 143-155). The following is a brief summary of the procedure. Mice were asphyxiated with CO2 then decapitated. The brain was rapidly removed, then placed into ice-cold HABG medium. The recipe for HABG medium was: HibernateA supplemented with 2% B27 and 0.5 mM Glutamax (all reagents from Life Technologies). Hippocampi were micro-dissected from the brains, then washed with HABG without calcium (Hibernate A minus Calcium, BrainBits; 2% B27, Life Technologies; 0.5 mM glutamax, Life Technologies).
The hippocampi were then transferred to HABG without calcium, supplemented with 2 mg/mL papain (Worthington Biochemical). They were incubated at 30° C. on a roller for 40 min, then gently triturated with a fire-polished glass pipette. The supernatant containing dissociated neurons was collected, then centrifuged for 2 min at 200 g. The cell pellet was collected, and then resuspended in 8 mL of HABG. Live cells were counted, then plated onto 12 mm glass coverslips in HABG (2 mL) in 24-well plates at a density of 50-100 cells per coverslip. These cells were maintained at room temperature until use.
Whole-cell electrophysiology was performed using 1.5 mm diameter glass capillary tubes (World Precision Instruments TW150-4), pulled to a fine tip with a Sutter P-97 micropipette puller. The intracellular buffer was 90 mM KF, 30 mM KCl, 10 mM HEPES, and 5 mM EGTA, pH 7.4, 290mOs. The extracellular buffer was 135 mM NaCl, 4 mM KCl, 2 mM CaCl2, 1 mM MgCl2, 5 mM glucose, 10 mM HEPES, pH 7.4, 300 mOs. The open-tip resistances of the micropipettes using these solutions were 2-4 MΩ. Whole-cell recordings of neuron cell bodies were performed in voltage-clamp mode using an Axon Axopatch 200B amplifier. Whole-cell current was measured holding the interior of the cell at −60 mV, using a 5 kHz lowpass filter. The cells were continuously perfused through 7 mm square glass barrels using a solenoid-controlled solution switching device (Warner Instruments, PF-77B). The peak current in response to a 500 ms exposure to 10 mM glutamate every 5 seconds was measured, before and after exposure to test compound.
For analysis, the mean peak current of 5 traces in the presence of test compound was divided by the mean peak current of 5 traces prior to the addition of test compound. Compounds were tested at concentrations at least ten times higher than their estimated potency in the calcium flux assay, in order to ensure near-saturating occupancy of the receptor.

| IC50 [1] [nM] | Compound | peak current (% control) ([2]; 0.1 μM test compound) [%] | peak current (% control) ([2]; 10 μM test compound) [%] | peak current (% control) ([2]; 1 μM test compound) [%] |
| --- | --- | --- | --- | --- |
| 12.6 | Oc1ccc(-c2c(-c3ccc(F)cc3)nc3c(N4CCOCC4)nccn23)cc1 [Example 83, 4-[2-(4-Fluorophenyl)-8-morpholino-imidazo[1,2-a]pyrazin-3-yl]-phenol] | – | 78 | – |
| 2.51 | CC(=O)N1CCN(c2nccn3c(-c4ccc5c(c4)CC(=O)N5)c(-c4ccc(C#N)cc4)nc23)CC1 [Example 107, 4-[8-(4-Acetylpiperazin-1-yl)-3-(2-oxoindolin-5-yl)imidazo[1,2-a]pyrazin-2-yl]benzonitrile] | 67 | – | – |
| 0.631 | O=C1Cc2cc(-c3c(-c4ccc(F)cc4)nn4c(N5CCS(=O)(=O)CC5)nccc34)ccc2N1 [Example 170, 5-[7-(1,1-Dioxo-1,4-thiazinan-4-yl)-2-(4-fluorophenyl)pyrazolo[1,5-c]pyrimidin-3-yl]indolin-2-one] | – | – | – |
| 20 | O=C(Nc1ccccc1)c1nc2c(N3CCOCC3)nccn2c1-c1ccc2[nH]c(=O)[nH]c2c1 [Example 140, 8-Morpholino-3-(2-oxo-1,3-dihydrobenzimidazol-5-yl)-N-phenyl-imidazo[1,2-a]pyrazine-2-carboxamide] | – | – | – |
| 2 | N#Cc1ccc(-c2nc3c(N4CCOCC4)nccn3c2-c2ccc3c(c2)CC(=O)N3)cc1 [Example 102, 4-[8-Morpholino-3-(2-oxoindolin-5-yl)imidazo[1,2-a]pyrazin-2-yl]benzonitrile] | – | – | – |

Further lines, the molecule ahead of its results:

| Compound | IC50 [1] [nM] | peak current (% control) ([2]; 0.1 μM test compound) [%] | peak current (% control) ([2]; 10 μM test compound) [%] | peak current (% control) ([2]; 1 μM test compound) [%] |
| --- | --- | --- | --- | --- |
| CC(=O)N1CCN(c2nccn3c(-c4ccc5c(c4)CC(=O)N5)c(Cc4ccccc4)nc23)CC1 [Example 17, 5-[8-(4-Acetylpiperazin-1-yl)-2-benzyl-imidazo[1,2-a]pyrazin-3-yl]indolin-2-one] | 1.26 | 68 | – | – |
| Oc1ccc(-c2c(-c3ccc(F)cc3)nc3c(N4CC5(COC5)C4)nccn23)cc1 [Example 7, 4-[2-(4-Fluorophenyl)-8-(6-oxa-2-azaspiro[3.3]heptan-2-yl)imidazo[1,2-a]pyrazin-3-yl]phenol] | 50.1 | – | 55 | – |
| Fc1ccc(-c2nc3c(N4CCOCC4)nccn3c2-c2ccc3[nH]ncc3c2)cc1 [Example 10, 4-[2-(4-Fluorophenyl)-3-(1H-indazol-5-yl)imidazo[1,2-a]pyrazin-8-yl]morpholine] | 0.631 | 64 | – | 74 |
| CC(=O)N1CCN(c2nccn3c(-c4ccc(O)cc4)c(-c4ccc(F)cc4)nc23)CC1 [Example 1, 1-[4-[2-(4-Fluorophenyl)-3-(4-hydroxyphenyl)imidazo[1,2-a]pyrazin-8-yl]piperazin-1-yl]ethanone] | 6.31 | – | 81 | – |
| O=C1Cc2cc(-c3c(-c4ccc(F)cc4)nc4c(N5CCC(O)CC5)nccn34)ccc2N1 [Example 37, 5-[2-(4-Fluorophenyl)-8-(4-hydroxy-1-piperidyl)imidazo[1,2-a]pyrazin-3-yl]indolin-2-one] | 0.316 | 66 | – | – |
| CC(=O)N1CCN(c2nccn3c(-c4ccc5c(c4)CC(=O)N5)c(-c4ccc(F)cc4)nc23)CC1 [Example 12, 5-[8-(4-Acetylpiperazin-1-yl)-2-(4-fluorophenyl)imidazo[1,2-a]pyrazin-3-yl]indolin-2-one] | 0.398 | 69 | – | – |
| COC1CN(c2nccn3c(-c4ccc5c(c4)CC(=O)N5)c(-c4ccccc4)nc23)C1 [Example 78, 5-[8-(3-Methoxyazetidin-1-yl)-2-phenyl-imidazo[1,2-a]pyrazin-3-yl]indolin-2-one] | 2 | – | – | – |
